# Laboratory results: PMC9267955, “Antidiabetic, Antiglycation, and Antioxidant Activities of Ethanolic Seed Extract of Passiflora edulis and Piceatannol In Vitro” (Molecules, 2022)
# Legend:
# [1] = target: T1, DPP-4 human recombinant enzyme (Homo sapiens, UniProt P27487); test: DPP-4 inhibition assay; assay type: biochemical; settings: mean ± SD, triplicates
# T1 construct: purchased Sigma-Aldrich (Oakville, ON, Canada)
# Protocol: The DPP-4 inhibition assay was performed according to an established method. […] The reaction mixture was incubated for 30 min in the dark at 37 °C. Then, the fluorescent product was recorded at excitation/emission wavelengths of 350/450 nm using the microplate reader (Infinite® 200 PRO, TECAN, Männedorf, Switzerland). […] The percentage of the DPP-4 inhibition and IC50 was calculated as described in Section 3.3.1.
# [2] = MGO capture using derivatization with OPD (HPLC); settings: PESE 2 mg/mL, PIC 2 mM, AMG 2 mM; MGO 2 mM; 37 °C, 1 h
# Protocol: MGO scavenging was tested using a described procedure, with slight modifications. The quantification of MGO was based on derivatization with OPD, leading to the formation of the product 2-methylquinoxyline (2-MQ). MGO and OPD were dissolved in phosphate buffer (50 mM, pH 7.4) to a concentration of 2 mM and 4 mM, respectively. […] The reaction system was composed of 125 μL of the MGO solution, 125 μL of phosphate buffer (negative control), or PESE incubated at 37 °C for 1 h. After 250 μL of the OPD solution was added, the tubes were kept for 30 min for the derivatization reaction between MGO and OPD to complete. Then, the chromatographic analysis was performed. All solutions were previously filtered (microfilter pore diameter 0.45 μm). […] The linear gradient for elution was: starting at 5% of solvent B, 0–3 min, 5 to 50% B; 3–16 min, isocratic in 50% B; 16–17 min, 50–90% B; 17–19 min, isocratic in 90% B and 19–19.5 min, 90–5% B. The derivatization product, 2-methylquinoxyline (2-MQ), was detected at 315 nm, with a retention time of 10 min. The percentage of trapping efficiency of MGO was calculated using the following equation: % trapping MGO = [100 − (peak area after adding sample/peak area without adding sample) × 100].
# [3] = DPPH radical scavenging assay
# Protocol: After incubation in the dark for 30 min, the absorbance was read at 516 nm, using a UV–Vis spectrophotometer (Agilent Technologies, Santa Clara, CA, USA). Results were expressed as the half-maximal inhibitory concentration (IC50) in μg/mL.
# [4] = Superoxide anion radical scavenging activity
# Protocol: The potential of the samples to scavenger superoxide anion radicals was determined, with minor modifications. […] Phosphate buffer (19 mM, pH 7.4) was used to dissolve NADH, NBT, and PMS. QCT was used as means of comparison. The experiment was conducted at 37 °C in a microplate reader (Infinite® 200 PRO, TECAN, Männedorf, Switzerland), and the absorbance was measured at 560 nm. The results were expressed as IC50 of extract solution in μg/mL.
# [5] = tested on: BEAS-2B cells; test: Intracellular ROS level (DCFH-DA) after NNKOAc; assay type: cell-based, human
# Protocol: (§1) The generation of intracellular ROS in BEAS-2B, AML-12, and MCF-10A cells after treatments was measured as described previously. Briefly, DCFH-DA dye was readily taken up by cells and is subsequently hydrolyzed to DCFH, which can be oxidized to a measurable fluorescent product dichlorofluorescein (DCF). […] Cells with DMSO media (0.5%) served as the vehicle control. After treatments, DCFH-DA was added to the cell culture plates at a final concentration of 5 μM followed by 40 min incubation at dark. The fluorescence […] was then measured at an excitation and emission wavelength of 485 nm and 535 nm, using a microplate reader (Infinite® 200 PRO, TECAN, Männedorf, Switzerland).
# (§2) BEAS-2B, MCF10-A, and AML-12, cells were purchased from the American Tissue Type Culture Collection (ATCC; CRL-9609, CRL-10317, and CRL-2254) and cultured with a specific medium. BEAS-2B cells were cultured with LHC-9 media at 37 °C in an incubator with 5% CO2. Culture flasks (polystyrene T75) were pre-coated with a mixture of 0.01 mg/mL fibronectin, 0.03 mg/mL bovine collagen type I, and 0.01 mg/mL bovine serum albumin were dissolved in LHC-9 medium overnight. […]
# [6] = tested on: AML-12 cells; test: Intracellular ROS level (DCFH-DA) after NNKOAc; assay type: cell-based, mouse; settings: 50 µg/mL, 3 h pretreatment; NNKOAc 100 µM
# Protocol: as §1, §2
# [7] = tested on: MCF-10A cells; test: Intracellular ROS level (DCFH-DA) after NNKOAc; assay type: cell-based; settings: 50 µg/mL, 3 h pretreatment; NNKOAc 100 µM
# Protocol: as §1, §2
# [8] = target: alpha-glucosidase; design: method as in PMID 31986026; settings: cited from earlier work
# [9] = tested on: high-fat diet-fed C57BL/6J mice; design: method as in PMID 25832644; settings: PIC supplementation; cited from earlier work
# [10] = tested on: cultured myotubes; design: method as in PMID 25832644; settings: in the absence of insulin; cited from earlier work
# [11] = tested on: diabetic mice; design: method as in doi:10.32604/biocell.2020.08955; settings: cited from earlier work
# T1 sequence (P27487 whole entry): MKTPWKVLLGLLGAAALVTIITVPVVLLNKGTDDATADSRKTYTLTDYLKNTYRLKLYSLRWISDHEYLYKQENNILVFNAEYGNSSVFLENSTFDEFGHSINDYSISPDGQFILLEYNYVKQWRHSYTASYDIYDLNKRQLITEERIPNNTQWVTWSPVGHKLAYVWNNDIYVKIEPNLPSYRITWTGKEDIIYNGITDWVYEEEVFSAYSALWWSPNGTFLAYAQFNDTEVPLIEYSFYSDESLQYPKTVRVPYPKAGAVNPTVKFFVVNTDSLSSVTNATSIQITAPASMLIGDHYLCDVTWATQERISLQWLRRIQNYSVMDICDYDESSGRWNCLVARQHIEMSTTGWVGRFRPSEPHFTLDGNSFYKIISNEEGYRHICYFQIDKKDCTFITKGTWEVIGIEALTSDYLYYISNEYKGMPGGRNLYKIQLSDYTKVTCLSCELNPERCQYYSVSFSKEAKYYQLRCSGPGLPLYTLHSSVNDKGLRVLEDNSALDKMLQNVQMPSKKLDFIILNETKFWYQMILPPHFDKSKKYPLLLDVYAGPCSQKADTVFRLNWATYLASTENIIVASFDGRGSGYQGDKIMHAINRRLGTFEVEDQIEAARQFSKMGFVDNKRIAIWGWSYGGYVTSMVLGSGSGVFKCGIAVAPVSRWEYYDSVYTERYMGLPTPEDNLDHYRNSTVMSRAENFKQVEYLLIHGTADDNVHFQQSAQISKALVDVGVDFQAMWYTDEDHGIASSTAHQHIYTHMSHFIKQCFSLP
smiles,measurement,setting,value
"Oc1cc(O)cc(/C=C/c2ccc(O)c(O)c2)c1 [PIC, 3,3′,4′,5-trans-tetrahydroxystilbene]",IC50,[1],4660 µM
same,MGO trapping,[2],65.1%
same,DPPH• IC50,[3]; 30 min,6.3 ± 1.3 µg/mL
same,IC50,[3]; data in parenthesis are in μM,25.8 µM
same,O2•− IC50,[4],7.3 ± 0.02 µg/mL
same,IC50,"[4]; data in parenthesis are in μM, read-out: O2•− IC50 (in parenthesis) (converted)",30.1 µM
same,"Protection from oxidative stress (ROS) caused by the carcinogen, BEAS-2B","[5]; 50 µg/mL, 3 h pretreatment, NNKOAc 100 µM",able to protect
same,Protection of cultured human cells from oxidative stress caused by NNKOAc,"[5]; NNKOAc at 100 µM, abstract, cell line and concentration not specified",capable of protecting
same,"Protection from oxidative stress (ROS) caused by the carcinogen, AML-12",[6],able to protect
same,"Protection from oxidative stress (ROS) caused by the carcinogen, MCF-10A",[7],able to protect
same,IC50,[8],4.3 ± 0.07 µM
same,"Fasting blood glucose, high-fat diet-fed C57BL/6J mice",[9],reduced fasting blood glucose
same,Glucose uptake in cultured myotubes,[10],promoted glucose uptake
same,"Blood glucose, diabetic mice",[11],lowered the blood glucose
same,"Glucose tolerance, diabetic mice",[11],improved glucose tolerance
